# Measured values taken from US6737383B1, “Herbicidal oxadiazolidines” (priority 1999, dated 2004).
# How the values were obtained:
# lambsquarters = test: Test C postemergence lambsquarters; type: in vivo, Chenopodium album; details: 0 to 100 scale, 0 no effect, 100 complete control
# Summary of the method: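 Visual ratings on a 0 to 100 scale, where 0 means no effect and 100 complete control, were made versus untreated controls roughly 14 to 21 days after postemergence treatment. Test compounds were formulated in a non-phytotoxic solvent mixture containing a surfactant.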
# large crabgrass = test: Test C postemergence large crabgrass; type: in vivo, Digitaria sanguinalis; details: 0 to 100 scale, 0 no effect, 100 complete control
# Protocol: (§1) Compounds evaluated in this test were formulated in a non-phytotoxic solvent mixture which included a surfactant and applied to plants that were grown for various periods of time before treatment (postemergence application). A mixture of sandy loam soil and greenhouse potting mix in a 60:40 ratio was used for the postemergence test.
# (§2) Plantings of these crops and weed species were adjusted to produce plants of appropriate size for the postemergence test. All plant species were grown using normal greenhouse practices. Crop and weed species include arrowleaf sida (Sida rhombifolia), barnyardgrass (Echinochloa crus-galli), cocklebur (Xanthium strumarium), common ragweed (Ambrosia elatior), corn (Zea mays), cotton (Gossypium hirsutum), eastern black nightshade (Solanum ptycanthum), fall panicum (Panicum dichotomiflorum), field bindweed (Convolvulus arvensis), giant foxtail (Setaria faberii), hairy beggarticks (Bidens pilosa), ivyleaf morningglory (Ipomoea hederacea), johnsongrass (Sorghum halepense), ladysthumb smartweed (Polygonum persicaria), lambsquarters (Chenopodium album), large crabgrass (Digitaria sanguinalis), purple nutsedge (Cyperus rotundus), redroot pigweed (Amaranthus retroflexus), soybean (Glycine max), surinam grass (Brachiaria decumbens), velvetleaf (Abutilon theophrasti) and wild poinsettia (Euphorbia heterophylla).
# (§3) Treated plants and untreated controls were maintained in a greenhouse for approximately 14, to 21 days, after which all treated plants were compared to untreated controls and visually evaluated. Plant response ratings, summarized in Table C, were based upon a 0 to 100 scale where 0 was no effect and 100 was complete control. A dash response (−) means no test result.
# redroot pigweed [1] = test: Test C postemergence redroot pigweed; type: in vivo, Amaranthus retroflexus; details: 0 to 100 scale, 0 no effect, 100 complete control
# Protocol: as §1, §2, §3
# deadnettle = test: Test E deadnettle; type: in vivo, Lamium amplexicaule; details: Postemergence; for Plant response rating, Deadnettle: 0 to 100 scale; for Deadnettle plant response rating: Rate 250 g/ha, 0 to 100 scale where 0 is no effect and 100 is complete control
# Protocol: as §1, with “in the 1- to 4-leaf stage” for “grown for various periods of time before treatment”
# (§4) Plantings of these crops and weed species were adjusted to produce plants of appropriate size for the postemergence test. All plant species were grown using normal greenhouse practices. Crop and weed species include annual bluegrass (Poa annua), blackgrass (Alopecurus myosuroides), black nightshade (Solanum nigra), chickweed (Stellaria media), common poppy (Papaver rhoeas), deadnettle (Lamium amplexicaule), downy brome (Bromus tectorum), field violet (Viola arvensis), galium (Galium aparine), green foxtail (Setaria viridis), Italian ryegrass (Lolium multiflorum), jointed goatgrass (Aegilops cylindrica), kochia (Kochia scoparia), lambsquarters (Chenopodium album), littleseed canarygrass (Phalaris minor), rape (Brassica napus), redroot pigweed (Amaranthus retroflexus), Russian thistle (Salsola kali), scentless chamomile (Matricaria inodora), spring barley (Hordeum vulgare), sugar beet (Beta vulgaris), sunflower (Helianthus annuus), ivyleaf speedwell (Veronica hederaefolia), spring wheat (Triticum aestivum), winter wheat (Triticum aestivum), wild buckwheat (Polygonum convolvulus), wild mustard (Sinapis arvensis), wild oat (Avena fatua), windgrass (Apera spica-venti) and winter barley (Hordeum vulgare).
# (§5) Treated plants and untreated controls were maintained in a greenhouse for approximately 21 to 28 days, after which all treated plants were compared to untreated controls and visually evaluated. […] A dash response (-) means no test result.
# jointed goatgrass = test: Test E jointed goatgrass; type: in vivo, Aegilops cylindrica; details: Postemergence; for Plant response rating, Jointed goatgra: 0 to 100 scale; for Jointed goatgra plant response rating: Rate 250 g/ha, 0 to 100 scale where 0 is no effect and 100 is complete control
# Summary of the method: (§6)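 Greenhouse test: for postemergence, foliar application at 1- to 4-leaf stage; compound in non-phytotoxic solvent with surfactant. Rating is visual, relative to untreated controls, about 21 to 28 days after treatment.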
# rape = test: Test E rape; type: in vivo, Brassica napus; details: Postemergence; for Plant response rating, Rape: 0 to 100 scale; for Rape plant response rating: Rate 250 g/ha, 0 to 100 scale where 0 is no effect and 100 is complete control
# Summary of the method: as §6
# redroot pigweed [2] = test: Test E redroot pigweed; type: in vivo, Amaranthus retroflexus; details: Postemergence; for Plant response rating, Redroot pigweed: 0 to 100 scale; for Redroot pigweed plant response rating: Rate 250 g/ha, 0 to 100 scale where 0 is no effect and 100 is complete control
# Protocol: as §1, with “in the 1- to 4-leaf stage” for “grown for various periods of time before treatment”
# as §4, §5
# Russian thistle [3] = test: Test E Russian thistle; type: in vivo, Salsola kali; details: Postemergence; for Plant response rating, Russian thistle: 0 to 100 scale; for Russian thistle plant response rating: Rate 250 g/ha, 0 to 100 scale where 0 is no effect and 100 is complete control
# Protocol: […] A mixture of sandy loam soil and greenhouse potting mix in a 60:40 ratio was used for the postemergence test.
# as §4, §5
# Alexandergrass = test: Test D Alexandergrass; type: in vivo, Brachiaria plantaginea; details: Postemergence, 0 to 100 scale
# bermuda-grass = test: Test D bermudagrass; type: in vivo, Cynodon dactylon; details: Postemergence, 0 to 100 scale
# pitted morningglory = test: Test D pitted morningglory; type: in vivo, Ipomoea lacunosa; details: Postemergence, 0 to 100 scale
# purple nutsedge = test: Test D purple nutsedge; type: in vivo, Cyperus rotundus; details: Postemergence, 0 to 100 scale
# Russian thistle [4] = test: Test E Russian thistle; type: in vivo, Salsola kali; details: Preemergence; for Russian thistle plant response rating (0 to 100 scale): Rate 250 g/ha
# wild mustard = test: Test E wild mustard; type: in vivo, Sinapis arvensis; details: Preemergence; for Wild mustard plant response rating (0 to 100 scale): Rate 250 g/ha
# Green foxtail = test: Test D green foxtail; type: in vivo; details: Rate 250 g/ha; Postemergence; 0 to 100 scale
# [5] = Rate 125 g/ha, 0 is no effect, 100 is complete control
# [6] = Rate 500 g/ha, 0 is no effect, 100 is complete control
# [7] = Rate 16 g/ha, 0 no injury, 100 complete control
# [8] = Rate 32 g/ha, 0 no injury, 100 complete control
# [9] = Rate 64 g/ha, 0 no injury, 100 complete control
# [10] = Rate 125 g/ha, 0 no injury, 100 complete control
# [11] = Rate 125 g/ha, 0 to 100 scale (0 no effect, 100 complete control)
# [12] = Rate 500 g/ha, 0 to 100 scale where 0 is no effect and 100 is complete control
compound,measurement,setting,value
CC(C)N(C(=O)n1oc(=O)n(C2CC2)c1=O)c1ccc(F)cc1 [Compound 242],Plant response rating Lambsquarters,lambsquarters; Rate 140 g/ha,0
same,Plant response rating Lambsquarters,lambsquarters; Rate 280 g/ha,0
same,Plant response rating Lambsquarters,lambsquarters; Rate 560 g/ha,0
same,Plant response rating Lambsquarters,lambsquarters; Rate 1120 g/ha,0
same,"Plant response rating, Large crabgrass",large crabgrass; Rate 140 g/ha,10
same,"Plant response rating, Large crabgrass",large crabgrass; Rate 280 g/ha,30
same,"Plant response rating, Large crabgrass",large crabgrass; Rate 560 g/ha,85
same,"Plant response rating, Large crabgrass",large crabgrass; Rate 1120 g/ha,85
same,"Plant response rating, Redroot pigweed",redroot pigweed [1]; Rate 140 g/ha,0
same,"Plant response rating, Redroot pigweed",redroot pigweed [1]; Rate 280 g/ha,0
same,"Plant response rating, Redroot pigweed",redroot pigweed [1]; Rate 560 g/ha,10
same,"Plant response rating, Redroot pigweed",redroot pigweed [1]; Rate 1120 g/ha,50
same,"Plant response rating, Deadnettle",deadnettle; Rate 62 g/ha,100
same,"Plant response rating, Deadnettle",deadnettle; [5],10
same,Deadnettle plant response rating,deadnettle,10
same,"Plant response rating, Deadnettle",deadnettle; [6],50
same,"Plant response rating, Jointed goatgra",jointed goatgrass; Rate 62 g/ha,55
same,"Plant response rating, Jointed goatgra",jointed goatgrass; [5],0
same,Jointed goatgra plant response rating,jointed goatgrass,0
same,"Plant response rating, Jointed goatgra",jointed goatgrass; [6],40
same,"Plant response rating, Rape",rape; Rate 62 g/ha,20
same,"Plant response rating, Rape",rape; [5],10
same,Rape plant response rating,rape,0
same,"Plant response rating, Rape",rape; [6],50
same,"Plant response rating, Redroot pigweed",redroot pigweed [2]; Rate 62 g/ha,0
same,"Plant response rating, Redroot pigweed",redroot pigweed [2]; [5],0
same,Redroot pigweed plant response rating,redroot pigweed [2],0
same,"Plant response rating, Redroot pigweed",redroot pigweed [2]; [6],40
same,"Plant response rating, Russian thistle",Russian thistle [3]; Rate 62 g/ha,50
same,"Plant response rating, Russian thistle",Russian thistle [3]; [5],0
same,Russian thistle plant response rating,Russian thistle [3],0
same,"Plant response rating, Russian thistle",Russian thistle [3]; [6],0
same,"Plant response rating, Alexandergrass",Alexandergrass; [7],0
same,"Plant response rating, Alexandergrass",Alexandergrass; [8],50
same,"Plant response rating, Alexandergrass",Alexandergrass; [9],90
same,"Plant response rating, Alexandergrass",Alexandergrass; [10],100
same,"Plant response rating, Alexandergrass",Alexandergrass; Rate 250 g/ha,100
same,"Plant response rating, Bermudagrass",bermuda-grass; [7],90
same,"Plant response rating, Bermudagrass",bermuda-grass; [8],100
same,"Plant response rating, Bermudagrass",bermuda-grass; [9],100
same,"Plant response rating, Bermudagrass",bermuda-grass; [10],100
same,"Plant response rating, Bermudagrass",bermuda-grass; Rate 250 g/ha,100
same,"Plant response rating, P. morninglory",pitted morningglory; [7],0
same,"Plant response rating, P. morninglory",pitted morningglory; [8],0
same,"Plant response rating, P. morninglory",pitted morningglory; [9],0
same,"Plant response rating, P. morninglory",pitted morningglory; [10],0
same,"Plant response rating, P. morninglory",pitted morningglory; Rate 250 g/ha,0
same,"Plant response rating, Purple nutsedge",purple nutsedge; [7],0
same,"Plant response rating, Purple nutsedge",purple nutsedge; [8],0
same,Purple nutsedge plant response rating,purple nutsedge; [9],0
same,Purple nutsedge plant response rating,purple nutsedge; [10],0
same,"Plant response rating, Purple nutsedge",purple nutsedge; Rate 250 g/ha,100
same,"Plant response rating, Russian thistle",Russian thistle [4]; [11],20
same,Russian thistle plant response rating (0 to 100 scale),Russian thistle [4],30
same,"Plant response rating, Russian thistle",Russian thistle [4]; [12],50
same,"Plant response rating, Wild mustard",wild mustard; [11],65
same,Wild mustard plant response rating (0 to 100 scale),wild mustard,65
same,"Plant response rating, Wild mustard",wild mustard; [12],70
same,"Plant response rating, Green foxtail",Green foxtail,100
CC(C)N(C(=O)n1oc(=O)n(C)c1=O)c1ccc(F)cc1 [Compound 138],Plant response rating Lambsquarters,lambsquarters; Rate 140 g/ha,0
same,Plant response rating Lambsquarters,lambsquarters; Rate 280 g/ha,0
same,Plant response rating Lambsquarters,lambsquarters; Rate 560 g/ha,10
same,Plant response rating Lambsquarters,lambsquarters; Rate 1120 g/ha,20
same,"Plant response rating, Large crabgrass",large crabgrass; Rate 140 g/ha,0
same,"Plant response rating, Large crabgrass",large crabgrass; Rate 280 g/ha,10
same,"Plant response rating, Large crabgrass",large crabgrass; Rate 560 g/ha,85
same,"Plant response rating, Large crabgrass",large crabgrass; Rate 1120 g/ha,85
same,"Plant response rating, Redroot pigweed",redroot pigweed [1]; Rate 140 g/ha,0
same,"Plant response rating, Redroot pigweed",redroot pigweed [1]; Rate 280 g/ha,10
same,"Plant response rating, Redroot pigweed",redroot pigweed [1]; Rate 560 g/ha,40
same,"Plant response rating, Redroot pigweed",redroot pigweed [1]; Rate 1120 g/ha,70
same,"Plant response rating, Deadnettle",deadnettle; Rate 125 g/ha,0
same,Deadnettle plant response rating,deadnettle,50
same,"Plant response rating, Jointed goatgra",jointed goatgrass; Rate 125 g/ha,0
same,Jointed goatgra plant response rating,jointed goatgrass,0
same,"Plant response rating, Rape",rape; Rate 125 g/ha,10
same,Rape plant response rating,rape,0
same,"Plant response rating, Redroot pigweed",redroot pigweed [2]; Rate 125 g/ha,20
same,Redroot pigweed plant response rating,redroot pigweed [2],10
same,"Plant response rating, Russian thistle",Russian thistle [3]; Rate 125 g/ha,0
same,Russian thistle plant response rating,Russian thistle [3],0
same,"Plant response rating, Russian thistle",Russian thistle [4]; [11],10
same,Russian thistle plant response rating (0 to 100 scale),Russian thistle [4],20
same,"Plant response rating, Wild mustard",wild mustard; [11],40
same,Wild mustard plant response rating (0 to 100 scale),wild mustard,55
CC(C)N(C(=O)n1oc(=O)n(C2CCCCCC2)c1=O)c1ccc(F)cc1F [Compound 342],"Plant response rating, Alexandergrass",Alexandergrass; [7],0
same,"Plant response rating, Alexandergrass",Alexandergrass; [8],0
same,"Plant response rating, Alexandergrass",Alexandergrass; [9],0
same,"Plant response rating, Alexandergrass",Alexandergrass; [10],70
same,"Plant response rating, Alexandergrass",Alexandergrass; Rate 250 g/ha,80
same,"Plant response rating, Bermudagrass",bermuda-grass; [7],20
same,"Plant response rating, Bermudagrass",bermuda-grass; [8],30
same,"Plant response rating, Bermudagrass",bermuda-grass; [9],90
same,"Plant response rating, Bermudagrass",bermuda-grass; [10],100
same,"Plant response rating, Bermudagrass",bermuda-grass; Rate 250 g/ha,100
same,"Plant response rating, P. morninglory",pitted morningglory; [7],0
same,"Plant response rating, P. morninglory",pitted morningglory; [8],0
same,"Plant response rating, P. morninglory",pitted morningglory; [9],0
same,"Plant response rating, P. morninglory",pitted morningglory; [10],0
same,"Plant response rating, P. morninglory",pitted morningglory; Rate 250 g/ha,0
same,"Plant response rating, Purple nutsedge",purple nutsedge; [7],0
same,"Plant response rating, Purple nutsedge",purple nutsedge; [8],0
same,Purple nutsedge plant response rating,purple nutsedge; [9],0
same,Purple nutsedge plant response rating,purple nutsedge; [10],0
same,"Plant response rating, Purple nutsedge",purple nutsedge; Rate 250 g/ha,0
same,"Plant response rating, Green foxtail",Green foxtail,100
